Source: US20240025919A1, “AZA-TETRACYCLIC OXAZEPINE COMPOUNDS AND USES THEREOF” (Genentech, Inc., priority 2022, published 2024)
pIC50: −log10 of the molar value. Where two headings read alike, the source gives them in different places.

Legend:
[1] = test system: H1975 (KRAS wild type human lung adenocarcinoma cell line); assay: KRAS 3D-Cell Proliferation Assay, H1975 (CellTiter-Glo 3D, 7 days); type: cell-based; details: H1975 3D culture, read-out: Prolif H1975 3D ATP IC50
Experimental: (§1) Example 503: KRAS 3D-Cell Proliferation Assays. Cellular potencies of compounds are assessed by evaluating inhibition of proliferation in 3D cultures of homozygous mutant KRAS G12D human pancreatic cell lines (AsPC-1 and HPAC) as compared to a KRAS wild type human lung adenocarcinoma cell line (PC-9 and/or H1975). Cells are seeded into 384-well black round-bottom, ultra-low attachment assay plates in 50 uL cell growth medium (RPMI-1640 with 10% fetal bovine serum and 2 mM L-glutamine). After overnight incubation at 37° C. and 5% CO2, compounds solubilized in DMSO are added as dilution series to the wells in a total volume of 150 nL (0.3% DMSO final). The cells are incubated for 7 days at 37° C. and 5% CO2. Cell proliferation is quantitated by addition of 40 uL/well of CellTiter-GloO 3D (Promega), and the well contents are mixed 20× at high speed using liquid handling automation workstation (Bravo with 384-well head) and centrifuged at 1500 rpm for 2 minutes to eliminate bubbles. This reagent in combination with mechanical disruption releases the cellular ATP to promote activity in a luciferase-based enzyme/substrate chemiluminescent detection system. After a 30-minute incubation under ambient conditions with shaking and an additional 10 minutes without shaking, the luminescence is read on a plate reader (e.g. EnVision [PerkinElmer]). The results are normalized to percent inhibition based on the following control samples: DMSO (0% inhibition) and 1 uM staurosporine (100% inhibition). The normalized luminescence results are plotted against compound concentration, and the data are fit to a 4-parameter Hill equation to determine the IC50 values.

KRAS G12D = KRAS G12D (Homo sapiens (Human), UniProt P01116, G12D); assay: KRAS G12D LoEnz Biochemical Assay, BODIPY-GDP Exchange TR-FRET (SOS1-mediated nucleotide exchange); details: read-out: KRas (G12D) GDP HTRF IC50
Chain of KRAS G12D (P01116-2 other isoform, or with tags, fused parts or gaps G12D): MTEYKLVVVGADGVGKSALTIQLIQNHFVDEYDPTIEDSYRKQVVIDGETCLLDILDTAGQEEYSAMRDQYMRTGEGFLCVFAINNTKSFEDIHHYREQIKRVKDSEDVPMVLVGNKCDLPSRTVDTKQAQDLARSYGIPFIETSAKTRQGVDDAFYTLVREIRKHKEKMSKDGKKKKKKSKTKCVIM

KRAS WT [2] = target: T1, KRAS WT (Homo sapiens (Human), UniProt P01116); assay: KRAS WT Biochemical Assay, BODIPY-GDP Exchange TR-FRET (Example 502; 0.06 nM KRAS WT, 15 nM GDP, 300 nM SOS1, 120-minute incubation); details: read-out: KRas HTRF IC50
T1 sequence (P01116-2 other isoform, or with tags, fused parts or gaps): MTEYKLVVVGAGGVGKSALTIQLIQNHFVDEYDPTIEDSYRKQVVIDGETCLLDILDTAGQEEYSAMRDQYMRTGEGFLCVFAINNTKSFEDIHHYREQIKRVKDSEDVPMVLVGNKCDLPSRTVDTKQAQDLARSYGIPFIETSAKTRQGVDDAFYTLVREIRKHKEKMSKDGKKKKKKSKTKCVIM
Outline: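 IC50 from a 4-parameter Hill fit of percent inhibition, itself the TR-FRET 520/490 nm ratio scaled between DMSO and a fully inhibiting control. Reaction: 300 nM SOS1 and 300 nM BODIPY-GDP added to preformed 0.06 nM KRAS WT/15 nM GDP/Tb-streptavidin complex; 120 min incubation; pH 7.5 HEPES, MgCl2, DTT.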

[3] = test system: HPAC (homozygous mutant KRAS G12D human pancreatic cell line); assay: KRAS 3D-Cell Proliferation Assay, HPAC (CellTiter-Glo 3D, 7 days); type: cell-based; details: HPAC 3D culture, read-out: Prolif HPAC 3D ATP IC50
Experimental: as §1

KRAS WT [4] = target: T1, KRAS WT; assay: KRAS WT Biochemical Assay, BODIPY-GDP Exchange TR-FRET (Example 501; 3 nM KRAS WT, 3 nM SOS1, 60-minute incubation)
Outline: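 SOS1-mediated exchange assay: 3 nM biotin-KRAS WT with terbium-streptavidin, started with 3 nM SOS1 and 300 nM BODIPY-GDP, HEPES pH 7.5 with MgCl2. TR-FRET (520/490 nm) read after 60 min; normalized to DMSO and full-inhibition control, IC50 from 4-parameter Hill fit.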

[5] = read-out: KRas(wt) GDP HTRF IC50

Row | Structure (SMILES) | pIC50 [1] | pIC50 (KRAS G12D) | pIC50 ([1]; Homo sapiens, NCI-H1975, 168 h) | pIC50 (KRAS WT [2]) | pIC50 [3] | pIC50 ([3]; Homo sapiens, HPAC, 168 h) | pIC50 (KRAS WT [4]; read-out: KRas HTRF IC50) | pIC50 (KRAS WT [4]; [5])
1 | C[C@@H]1Oc2nc(-c3c(Cl)c(N)c(F)c(F)c3C(F)(F)F)c(F)c3nc(OC[C@@]45CCCN4C[C@H](F)C5)nc(c23)N2C[C@H]3CC[C@H](N3)[C@@H]12 (atropisomer, axis not shown; (aS)) [Compound 106, 2-Chloro-5,6-difluoro-3-((5S,5aS,6S,9R)-1-fluoro-12-(((2R,7aS)-2-fluorotetrahydro-1H-pyrrolizin-7a(5H)-yl)methoxy)-5-methyl-5a,6,7,8,9,10-hexahydro-5H-4-oxa-3,10a,11,13,14-pentaaza-6,9-methanonaphtho[1,8-ab]heptalen-2-yl)-4-(trifluoromethyl)aniline] | 6.21 | – | – | – | – | – | – | –
2 | Cc1c(F)c(N)cc(-c2nc3c4c(nc(OC[C@H]5COC[C@H]6CCCN65)nc4c2F)N2C[C@H]4CC[C@H](N4)[C@H]2[C@H](C)O3)c1C(F)(F)F (single isomer, unassigned) [121 (isomer 1)] | – | 9.17 | 5.87 | 6.97 | – | – | – | –
3 | Cc1c(F)c(N)cc(-c2nc3c4c(nc(OC[C@H]5CC[C@@H]6CN(C)C(=O)CN56)nc4c2F)N2C[C@H]4CC[C@H](N4)[C@H]2[C@H](C)O3)c1C(F)(F)F (single isomer, unassigned) [131 (isomer 4)] | – | 8.94 | – | 6.71 | 7.05 | – | – | –
4 | Cc1c(F)c(N)cc(-c2nc3c4c(nc(OC[C@@]56CCCN5C[C@H](F)[C@@H]6F)nc4c2F)N2C[C@H]4CC[C@H](N4)[C@H]2[C@H](C)O3)c1C(F)(F)F (single isomer, unassigned) [143 (isomer 3)] | – | 9.37 | 5.96 | 7.33 | – | – | – | –
5 | Cc1c(F)c(N)cc(-c2nc3c4c(nc(OC[C@H]5C[C@@H]6COCCN65)nc4c2F)N2C[C@H]4CC[C@H](N4)[C@H]2[C@H](C)O3)c1C(F)(F)F (single isomer, unassigned) [159 (diast. 1)] | – | 9.55 | 5.37 | 7.19 | – | – | – | –
6 | C[C@@H]1Oc2nc(-c3cc(N)c(F)cc3[C@H](C)C(F)F)c(F)c3nc(OC[C@@]45CCCN4C[C@H](F)C5)nc(c23)N2C[C@H]3CC[C@H](N3)[C@@H]12 (single isomer, unassigned) [181 (isomer 1)] | – | 6.80 | – | 4.96 | – | 5.70 | – | –
7 | CC(c1cc(F)c(N)cc1-c1nc2c3c(nc(OC[C@@]45CCCN4C[C@H](F)C5)nc3c1F)N1C[C@H]3CC[C@H](N3)[C@H]1[C@H](C)O2)C(F)F (single isomer, unassigned) [181 (isomer 2)] | – | 7.30 | 5.14 | – | – | 6.04 | 5.52 | –
8 | Cc1c(F)c(N)cc(-c2nc3c4c(nc(OC[C@@]56CCCN5C[C@H](F)C6)nc4c2F)N2C[C@H]4CC[C@H](N4)[C@H]2[C@H](C(F)F)O3)c1C(F)(F)F (single isomer, unassigned) [238 (isomer 1)] | – | 5.11 | – | – | – | 5.70 | 5.42 | –
9 | Cc1nc(N)cc(-c2nc3c4c(nc(OC[C@]56CCN5CC(F)(F)C6)nc4c2F)N2C[C@H]4CC[C@H](N4)[C@H]2[C@H](C(F)(F)F)O3)c1C(F)(F)F (single isomer, unassigned) [252 (isomer 2)] | – | 8.23 | 4.70 | – | – | – | 6.80 | –
10 | Cc1c(F)c(N)cc(-c2nc3c4c(nc(OC[C@@]56CCN(C)C5COC6)nc4c2F)N2C[C@H]4CC[C@H](N4)[C@H]2[C@H](C)O3)c1C(F)(F)F (single isomer, unassigned) [258 (isomer 1)] | – | 10.05 | – | – | – | 8.30 | 7.83 | –
11 | Cc1nc(N)cc(-c2nc3c4c(nc(OC[C@H]5N(C)C[C@@]56CC6(F)F)nc4c2F)N2C[C@H]4CC[C@H](N4)[C@H]2[C@H](C(F)(F)F)O3)c1C(F)(F)F (single isomer, unassigned) [262 (isomer 2)] | – | 8.15 | 4.70 | – | – | – | 6.73 | –
12 | Cc1c(F)c(N)cc(-c2nc3c4c(nc(OC[C@@H]5C[C@@H](F)[C@H]6CCCN56)nc4c2F)N2C[C@H]4CC[C@H](N4)[C@H]2[C@H](C)O3)c1C(F)(F)F (single isomer, unassigned) [Compound 160 (diast. 1)] | – | 9.85 | 6.00 | 7.50 | – | – | – | –
13 | CCc1cccc2cc(O)cc(-c3nc4c5c(nc(OC[C@@]67CCCN6C[C@H](F)C7)nc5c3F)N3C[C@H]5CC[C@H](N5)[C@H]3[C@H](C)O4)c12 [Compound 10, 5-ethyl-4-((5S,5aS,6S,9R)-1-fluoro-12-(((2R,7aS)-2-fluorotetrahydro-1H-pyrrolizin-7a(5H)-yl)methoxy)-5-methyl-5a,6,7,8,9,10-hexahydro-5H-4-oxa-3,10a,11,13,14-pentaaza-6,9-methanonaphtho[1,8-ab]heptalen-2-yl)naphthalen-2-ol] | – | 10.09 | – | 7.88 | – | – | – | 8.19
14 | Cc1cc(-c2nc3c4c(nc(OC[C@@]56CCCN5C[C@H](F)C6)nc4c2F)N2C[C@H]4CC[C@H](N4)[C@H]2[C@H](C)O3)cc(N)c1F [Compound 13, 2-fluoro-5-((5S,5aS,6S,9R)-1-fluoro-12-(((2R,7aS)-2-fluorotetrahydro-1H-pyrrolizin-7a(5H)-yl)methoxy)-5-methyl-5a,6,7,8,9,10-hexahydro-5H-4-oxa-3,10a,11,13,14-pentaaza-6,9-methanonaphtho[1,8-ab]heptalen-2-yl)-3-methylaniline] | – | 7.51 | – | 5.75 | – | – | – | 5.81
15 | C[C@@H]1Oc2nc(-c3cc(N)cc(F)c3C(F)(F)F)c(F)c3nc(OC[C@@]45CCCN4C[C@H](F)C5)nc(c23)N2C[C@H]3CC[C@H](N3)[C@@H]12 [Compound 17, 3-fluoro-5-((5S,5aS,6S,9R)-1-fluoro-12-(((2R,7aS)-2-fluorotetrahydro-1H-pyrrolizin-7a(5H)-yl)methoxy)-5-methyl-5a,6,7,8,9,10-hexahydro-5H-4-oxa-3,10a,11,13,14-pentaaza-6,9-methanonaphtho[1,8-ab]heptalen-2-yl)-4-(trifluoromethyl)aniline] | – | 9.88 | – | 8.98 | – | – | – | 9.25
16 | Cc1c(F)c(N)cc(-c2nc3c4c(nc(OC[C@@H]5CC[C@H]6COCCN65)nc4c2F)N2C[C@H]4CC[C@H](N4)[C@H]2[C@H](C)O3)c1C(F)(F)F [Compound 31, 2-fluoro-5-((5S,5aS,6S,9R)-1-fluoro-12-(((6S,8aS)-hexahydro-1H-pyrrolo[2,1-c][1,4]oxazin-6-yl)methoxy)-5-methyl-5a,6,7,8,9,10-hexahydro-5H-4-oxa-3,10a,11,13,14-pentaaza-6,9-methanonaphtho[1,8-ab]heptalen-2-yl)-3-methyl-4-(trifluoromethyl)aniline] | – | 10.06 | – | 8.15 | – | – | – | 8.81
17 | Cc1cc(N)c(F)c(-c2nc3c4c(nc(OC[C@@]56CCCN5C[C@H](F)C6)nc4c2F)N2C[C@H]4CC[C@H](N4)[C@H]2[C@H](C)O3)c1C(F)(F)F [Compound 34, 2-Fluoro-3-((5S,5aS,6S,9R)-1-fluoro-12-(((2R,7aS)-2-fluorotetrahydro-1H-pyrrolizin-7a(5H)-yl)methoxy)-5-methyl-5a,6,7,8,9,10-hexahydro-5H-4-oxa-3,10a,11,13,14-pentaaza-6,9-methanonaphtho[1,8-ab]heptalen-2-yl)-5-methyl-4-(trifluoromethyl)aniline] | – | 9.63 | – | 8.37 | – | – | – | 8.67
18 | C=C1CN2CCC[C@@]2(COc2nc3c4c(nc(-c5cc(O)cc6cccc(CC)c56)c(F)c4n2)O[C@@H](C)[C@@H]2[C@@H]4CC[C@H](CN32)N4)C1 [Compound 80] | – | 10.17 | – | 8.46 | – | – | – | 8.47
